Laboratory results published in patent US20050277107A1, “Systems and methods for cell preservation” (priority 2002, published 2005).

Legend:
[1] = system: human fibroblast cells (HFF1 cells); assay: Cell viability after vacuum desiccation and rehydration on cell adhesion surfaces; format: cell-based; details: dried on standard tissue culture surfaces to about 20% moisture, post-rehydration on coated surface (Tissue Dried)
Procedure: In this set of experiments, human fibroblast cells (HFF1 cells) were desiccated under vacuum at room temperature on various surfaces, and in some cases, in the presence of 0.2 M extracellular trehalose. The fibroblasts were dried to about 20% moisture content. The fibroblasts were then recovered by rehydrating them, placing them into culture, and assessing their viability about 24 hours later, using techniques similar to those described in Example 1.

[2] = system: NIH 3T3 murine fibroblasts; assay: Post-rehydration cell growth (percentage of viable cells versus undried controls after overnight culture); format: cell-based
Procedure: (§1) NIH 3T3 murine fibroblasts were cultured in Dulbecco's Modified Eagle's medium (DMEM) supplemented with 10% v/v bovine calf serum and 1% v/v penicillin-streptomycin at 37° C. with 10% CO2 in air. At 70% confluence, the cells were trypsinized and resuspended in culture medium. 20 microliter droplets of cells were plated onto sterile 12 mm circular glass cover slips and cultured for 30 min at 37° C. to allow for loose attachment of the fibroblasts to the cover slip. In some cases, poly-L-lysine-coated cover slips were used for attaching the cells to the cover slips. The cover slips were precoated with poly-L-lysine to assure uniform surface characteristics as follows. The cover slips were first prepared by soaking them in aqua regia overnight. The next day, the cover slips were rinsed in 50 mM NaHCO3, then in de-ionized H2O. The cover slips were then baked for at least 3 h at 150° C. The cover slips were removed from the oven and floated in a 1 mg/ml solution of poly-L-lysine for 5 min on each side, then rinsed in de-ionized H2O and air-dried.
Trehalose was inserted into the fibroblasts as follows. The fibroblasts were washed with 30 microliters of a HEPES-buffered saline solution supplemented with EDTA, followed by three washes with 30 microliters of RPMI-1640. The cells were then porated by exposure to an RPMI-1640 solution containing 25 micrograms/ml of a pore-forming protein, H5 alpha-hemolysin, for 10 min. Intracellular trehalose was inserted into the porated cells by exposure to either a hypertonic (RPMI-1640+0.2 M trehalose; 528 mOsm/kg) or an isotonic (RPMI-1640 diluted in H2O+0.2 M trehalose; 310 mOsm/kg) trehalose solution for 45 min. The pores created by H5 alpha-hemolysin in the fibroblasts were closed by adding 25 micromolar ZnSO4 to the solution. The fibroblasts were then washed in an (H5-free) hypertonic or an isotonic trehalose solution. The osmolality of the solution was measured using a freezing-point depression osmometer. […]
(§2) Techniques used in these experiments for drying cells included evaporative drying (using natural convection) or forced laminar convective flow. […] The moisture content of each droplet was determined gravimetrically from the difference in the droplet weight before and after drying, and was expressed as a percentage of anhydrous dry weight. Anhydrous dry weights were determined by baking a representative droplet overnight at 110° C. and measuring the droplet weights. […] The cells within the droplet were then cultured overnight (˜18 h) and assessed for viability.
Following overnight culture, the percentage of viable cells in droplets that were dried and then recovered, compared to undried controls, was used as a measure of cell growth. Viable fibroblasts could be readily identified through their flattening, migratory, and mitotic behavior. […]

[3] = Glass transition temperature of extracellular trehalose solution (modulated temperature DSC); format: physicochemical; details: after 18 h of dried storage at 4° C.
Procedure: Thus, the extracellular trehalose solution had vitrified by 18 h. After vitrification (glass formation) of the solution containing the cells had occurred, the cells were able to retain their plasma membrane integrities, even after days to weeks in storage at relatively cooler storage temperatures.

[4] = system: NIH 3T3 murine fibroblasts; assay: Post-rehydration plasma membrane integrity (SYTO 13/ethidium bromide dual fluorescent assay) of dried cells; format: cell-based; details: for moisture content above which membrane integrity remained relatively stable: hypertonic (528 mOsm/kg) 0.2 M trehalose
Procedure: as §1
Trehalose was inserted into the fibroblasts as follows. The fibroblasts were washed with 30 microliters of a HEPES-buffered saline solution supplemented with EDTA, followed by three washes with 30 microliters of RPMI-1640. The cells were then porated by exposure to an RPMI-1640 solution containing 25 micrograms/ml of a pore-forming protein, H5 alpha-hemolysin, for 10 min. Intracellular trehalose was inserted into the porated cells by exposure to either a hypertonic (RPMI-1640+0.2 M trehalose; 528 mOsm/kg) or an isotonic (RPMI-1640 diluted in H2O+0.2 M trehalose; 310 mOsm/kg) trehalose solution for 45 min. The pores created by H5 alpha-hemolysin in the fibroblasts were closed by adding 25 micromolar ZnSO4 to the solution. The fibroblasts were then washed in an (H5-free) hypertonic or an isotonic trehalose solution. The osmolality of the solution was measured using a freezing-point depression osmometer. All experimental manipulations were performed at room temperature, unless otherwise indicated.
as §2, with “flow. The natural convection protocol is generally as follows. The approximate pre-desiccation dimensions of the 20 microliter droplet of media containing the fibroblasts on the glass cover slip was 6 mm diameter×1 mm height. The cover slips were placed in airtight acrylic boxes containing CaSO4/CoCl2 desiccant. The cover slips were stored there for different lengths of time, typically ranging from a few hours to several weeks.” for “flow.”
The integrity of the plasma membrane of the cells after rehydration was determined using a dual fluorescent assay as follows. […] The cells were imaged on a fluorescent microscope and analyzed. The membrane integrity (MI) for the cells was calculated as the percentage of SYTO® 13-positive cells in the sample. […]

3T3 fibroblasts = assay: Long-term stability of membrane integrity during dried storage (exponential decay curve fit); format: cell-based, murine; details: 0.4 M intracellular trehalose
Procedure: The integrity of the plasma membrane of the cells after rehydration was determined using a dual fluorescent assay as follows. SYTO® 13 (Molecular Probes, Inc. Eugene, Oreg.), a permeant live cell nucleic acid dye (25 micromolar), and ethidium bromide (EB; 25 micromolar) were used to differentially stain the cells. The cells were imaged on a fluorescent microscope and analyzed. The membrane integrity (MI) for the cells was calculated as the percentage of SYTO® 13-positive cells in the sample.
The membrane integrity of 3T3 fibroblasts loaded with 0.4 M trehalose intracellularly was measured for periods of time extending out to several weeks (FIG. 5). The fibroblasts were prepared using methods similar to those described in Example 1. The data in FIG. 5 represents experiments where cells were removed from storage, rehydrated, analyzed, and then discarded. The cells were stored at temperatures of −80° C., −20° C., 4° C., 25° C., and 37° C., over CaSO4 desiccant (about 5% relative humidity). The 0.4 M trehalose condition was chosen in this example since previous experiments had shown that cells containing 0.4 M trehalose had high MI values after overnight storage.
Thus, the rate at which the membrane integrity decays appears to be a function of the storage temperature.

Compound: fibronectin
- cell viability about 24 hours after rehydration [1]: Increases in cell viability

Compound: OC[C@H]1O[C@H](O[C@H]2O[C@H](CO)[C@@H](O)[C@H](O)[C@H]2O)[C@H](O)[C@@H](O)[C@@H]1O [trehalose]
- percentage of cell growth, isotonic intracellular and extracellular trehalose versus isotonic extracellular trehalose only ([2]; dried to about 10% moisture content, p=0.004): significant improvement
- cells viable (cell growth) following drying ([2]; hypertonic trehalose solutions, dried to about 10% moisture content): Less than 20%
- percentage of cell growth ([2]; isotonic 0.2 M extracellular trehalose only, dried to 10% moisture content): less than 30%
- cells capable of growth after recovery and overnight culture ([2]; isotonic 0.2 M intracellular and extracellular trehalose, moisture contents greater than about 10%): Approximately 80%
- glass transition temperature of the extracellular trehalose [3]: 5 to 10 °C
- moisture content above which membrane integrity remained relatively stable ([4]; extracellular trehalose only): greater than 15%
- moisture content above which membrane integrity remained relatively stable ([4]; intracellular and extracellular trehalose): greater than 10%
- membrane integrity (MI) after drying, internal plus external trehalose versus no internal trehalose ([4]; hypertonic solution): higher MI values
- moisture content below which gross membrane damage was observed ([4]; isotonic (310 mOsm/kg) solutions of 0.2 M trehalose): 5-8%
- intact cells (membrane integrity) ([4]; isotonic trehalose solutions, moisture contents as low as 5-8%): about 80%
- decay time constant of membrane integrity (3T3 fibroblasts; storage at 4° C. over CaSO4 desiccant): 54 days
- decay time constant of membrane integrity (3T3 fibroblasts; storage at 25° C. over CaSO4 desiccant): 7.5 days
- decay time constant of membrane integrity (3T3 fibroblasts; storage at 37° C. over CaSO4 desiccant): 2.0 days
- decay time constant of membrane integrity (3T3 fibroblasts; storage at -20° C. over CaSO4 desiccant): 138 days
- decay time constant of membrane integrity (3T3 fibroblasts; storage at -80° C. over CaSO4 desiccant): 147 days

Compound: laminin
- cell viability about 24 hours after rehydration [1]: Increases in cell viability

Compound: collagen
- cell viability about 24 hours after rehydration [1]: Increases in cell viability
